Experimental data taken from patent US20240226107A1, “UBIQUITIN-SPECIFIC PROTEASE 1 (USP1) INHIBITOR” (SIMCERE ZAIMING PHARMACEUTICAL CO., LTD., priority 2021, published 2024).
≈ marks a conversion by molar mass, not a printed value.

How the values were obtained:
[1] = tested on: MDA-MB-436 cells;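 further: MDA-MB-436 proliferation over 7 days with compound, viability read as ATP luminescence (CellTiter-Glo), inhibition relative to DMSO-only wells, day 0 signal as background, GI50 from four-parameter fit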
Method: Assay based on CellTiter-Glo luminescent cell viability assay system.
The assay kit (CellTiter-Glo® Luminescent Cell Viability Assay) was purchased from Promega, with Cat. No. of G7573, and was stored at −30° C. after subpackage. The kit is a homogeneous assay method for assaying the number of viable cells in a culture based on quantitative determination of ATP. The kit produces a luminescence signal proportional to the amount of ATP present, and the amount of ATP is directly proportional to the number of cells in the culture.
The cultured cells were trypsinized, collected and centrifuged, then resuspended at an adjusted concentration in a culture solution (DMEM+10% FBS), and cultured overnight on a 384-well plate (400 cells/20 μl/well) in a cell incubator with 5% CO2 at 37° C. An ECHO instrument was used to added the compound and pure DMSO onto each well of the 384-well plate. The total volume of the compound and DMSO is 100 nL, and the instrument obtains gradient diluted sample concentrations through different ratios. To each well, 30 μL of culture solution was added, and after mixing by centrifugal oscillation and re-centrifugation, the cells were cultured in a cell incubator for 7 days (one column of cells was subjected to CTG assay on the day of dosing). After day 7, 25 μL of CTG assay solution was added to each well, and after mixing by centrifugal oscillation and re-centrifugation, the cells were placed at room temperature away from light for 10 min. In terms of chemiluminescence signals, an Envision plate reader (PerkinElmer, emission wavelength: 400-700 nm) was used to measure a signal in each well. The chemiluminescence value [RLU]cpd on day 7 was obtained for the treatment group, the chemiluminescence value [RLU]cell on day 7 was obtained for the non-treatment group (given DMSO only), and the chemiluminescence value [RLU]background on day 0 was obtained for the parallel non-treatment group (given DMSO only) by CTG assay on day 0. […] In the following equation, x represents the concentration of the compound in a logarithmic form; and F(x) represents an effect value (inhibition rate of proliferation at the concentration): F(x)=(A+((B−A)/(1+((C/x)^D)))). A, B, C, and D are four parameters.

[2] = target: USP1 (Recombinant Human His6-USP1/His6-UAF1 Complex Protein) (Homo sapiens (Human), UniProt O94782); test: In vitro activity assay for USP1 (Ub-CHOP2-Reporter deubiquitination assay); assay type: biochemical; details: 0.5 h incubation at room temperature, read-out: In vitro inhibitory activity of USP1 IC50
Method in brief: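 His6-USP1/His6-UAF1 complex was mixed with compound in 20 mM Tris-HCl pH 8.0, 2 mM CaCl2, 2 mM β-mercaptoethanol and 0.05% CHAPS. Ub-CHOP2 reporter system plus substrate was added, then incubated 0.5 h at room temperature. IC50 came from a four-parameter logistic fit.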

[3] = Metabolic stability in vitro in human hepatocytes; assay type: in vitro ADME; details: read-out: Intrinsic clearance
Method: The concentration of each compound in the reaction system was measured by LC/MS/MS to calculate the intrinsic clearance of the compounds to be tested, and evaluate the metabolic stability in vitro in human hepatocytes.
To the incubation plate, 198 μL of 0.5×10^6 cells/mL human hepatocyte mixture and 2.0 μL of 100 μM compound to be tested or positive control were added to initiate reaction. Incubation was performed at 900 rpm at 37° C. […] Then the mixture was vortex-mixed for 5 min. […] Then 100 μL of supernatant of each compound was transferred to a 96-well sample plate, and 100 μL of purified water was added to dilute the sample.
The resulting samples were quantified by ion chromatograms. The residual rate was calculated from peak areas of the compounds to be tested or the positive control. The slope k was determined using Microsoft Excel by linear regression of natural logarithm of the residual rate to the incubation time. The intrinsic clearance (in vitro CLint, μL/min/10^6 cells) was calculated from the slope value according to the following equation: […]

[4] = Metabolic stability in vitro in rat hepatocytes; assay type: in vitro ADME; details: read-out: Intrinsic clearance
Method: The concentration of each compound in the reaction system was measured by LC/MS/MS to calculate the intrinsic clearance of the compounds to be tested, and evaluate the metabolic stability in vitro in rat hepatocytes.
To the incubation plate, 198 μL of 0.5×10^6 cells/mL rat hepatocyte mixture and 2.0 μL of 100 μM compound to be tested or positive control were added to initiate reaction. Incubation was performed at 900 rpm at 37° C. […] Then the mixture was vortex-mixed for 5 min. […] Then 100 μL of supernatant of each compound was transferred to a 96-well sample plate, and 100 μL of purified water was added to dilute the sample. The resulting samples were quantified by ion chromatograms. The residual rate was calculated from peak areas of the compounds to be tested or the positive control. The slope k was determined using Microsoft Excel by linear regression of natural logarithm of the residual rate to the incubation time. The intrinsic clearance (in vitro CLint, μL/min/10^6 cells) was calculated from the slope value according to the following equation: […]

[5] = target: PXR (Homo sapiens (Human), UniProt O75469); test: Potential for PXR activation in DPX2 cells; assay type: cell-based; details: versus 20 μM rifampicin
Method: DMSO solutions of the compounds to be tested and the control compound rifampicin solution were prepared, and diluted with Puracyp dosing medium (Puracyp, Cat. No: D-500-100) at 37° C. to respective test concentrations. The final concentrations of the compounds to be tested were 30 μM, 10 μM, and 1 μM, respectively, and the final concentration of rifampicin was 20 μM. The final concentration of DMSO in the test solution was 0.1%. In addition, 0.1% DMSO solution prepared with Puracyp dosing medium was used as a control.
DPX2 cells were suspended in Puracyp Culture medium (Puracyp, Cat No.: C-500-100) at a cell density of 4.5×10^5 cell/mL. Then, the suspension was placed on a 96-well culture plate at 100 μL/well for incubation at 37° C. for 24 h. The medium in appropriate wells of the 96-well culture plate was replaced (three times per well) by 100 μL of solution of the compounds to be tested and a control compound solution. After replacement, the plate was incubated at 37° C. for 24 h. The medium was then replaced (three times per well) by a newly prepared test solution of the compounds to be tested and a rifampicin test solution, and the plate was incubated at 37° C. for 24 h.
The medium in the 96-well culture plate was pipetted and washed twice with PBS. To each well, 50 μL of reagent diluted as required by CellTiter-Fluor™ Cell Viability Assay Kit (Promega, Cat. No.: G6082) was added, and incubated at 37° C. for 0.5 h. The 96-well plate was cooled to room temperature, and the fluorescence value of each well at 505 nm was measured in a fluorescence mode with a microplate reader at an excitation wavelength of 400 nm. Then, 50 μL of reagent prepared as required by One-Glo Luciferase Assay System (Promega, Cat. No.: E6120) was added to each well, and the mixture was incubated at room temperature for 5 min. The luminescence value of each well was read by using a lumen meter.
Normalized luciferase activity was determined by RLU/RFU, and the RLU and RFU of the samples were mean values of duplicate wells, respectively.
[formula] • Fold of activation: fold of activation of normalized luciferase; • RLUtest: measured luminescence value of test wells at each test dose of test compounds; • RLUvehicle: measured luminescence value of test wells when tested with the control DMSO solution; • RFUtest: measured fluorescence value of test wells at each test dose of test compounds; • RFUvehicle: measured fluorescence value of test wells when tested with the control DMSO solution.
The percentage of positive control was calculated as follows:
% Positive control=(fold activationtest compound−1)/(fold activationpositive control compound−1)×100% • % Positive control: percentage of PXR activation compared with 20 μM rifampicin activation at each test dose of test compounds; • Fold activationtest compound: fold of activation of normalized luciferase at each test dose of test compounds; • Fold activationpositive control compound: fold of activation of normalized luciferase of test compounds under 20 μM rifampicin.

[6] = Solubility (PBS pH 7.4) of compounds from DMSO solution; assay type: physicochemical; details: aqueous buffer, kinetic from dmso stock, 10 mM DMSO solution into PBS pH 7.4, 25° C., read-out: Calculated solubility
Method: The solubility (PBS pH 7.4) of a compound to be tested was determined by LC/MS/MS. 6 μL of 10 mM DMSO solution of the compound to be tested was mixed with 194 μL of DMSO to prepare 300 μM compound solution. In 490 μL of water and acetonitrile (1:1) containing an internal standard, 5 μL of the solution and 5 μL of PBS pH 7.4 solution were mixed to prepare 3 μM standard concentration solution of the sample to be tested. The dilution factor of the standard solution can be adjusted according to the strength of response signals in LC/MS.
To 485 μL of PBS pH 7.4 solution, 15 μL of 10 mM DMSO solution of the compound to be tested was added. […] After shaking, the stir bar was removed, and the sample was transferred to a filter plate and filtered using a vacuum manifold. In 490 μL of water and acetonitrile (1:1) containing an internal standard, 5 μL of filtrate and 5 μL of PBS pH 7.4 solution were mixed to prepare a solution to be tested. The dilution factor can be adjusted according to the solubility value and the strength of response signals in LC/MS.
The resulting samples were determined by LC/MS/MS. The sample solubility was calculated from peak areas of the solution of the compound to be tested and the standard concentration solution, according to the following equation:
[formula] • [Sample] is the solubility of the sample to be tested; • Area ratiosample is the ratio of the peak area of sample in the sample to be tested to the peak area of the internal standard; • INJ VOL STD is the injection volume of the standard concentration solution; • DFsample is the dilution factor of the solution of the sample to be tested; • [STD] is the concentration of the standard concentration solution; • INJ VOLsample is the injection volume of the solution of the sample to be tested; and • Area ratio STD is the ratio of the peak area of sample in the standard concentration solution to the peak area of the internal standard.

[7] = Caco-2 permeability assay; assay type: in vitro ADME; details: human, pH 7.4, Caco-2, 5 μM, 2 h
Method: The apparent permeability coefficient (Papp) of the analytical drug was determined by liquid chromatography-mass spectrometry (LC-MS/MS) through a Caco-2 cell model.
In this test example, Caco-2 cells were purchased from American Type Culture Collection (ATCC); 4-hydroxyethyl piperazine ethane sulfonic acid (HEPES) was purchased from Beijing Solarbio Science & Technology Co., Ltd.; Hanks' balanced salt solution (HBSS) and non-essential amino acids (NEAA) were purchased from ThermoFisher Scientific; penicillin, streptomycin, and trypsin/EDTA were purchased from Solarbio; fetal bovine serum (FBS) and DMEM medium were purchased from Corning; HTS-96-well Transwell plates and other sterile consumables were purchased from Corning; Millicell resistance measuring system was purchased from Millipore; Cellometer®K2 was purchased from Nexcelom Bioscience; Infinite 200 PRO microplate reader was purchased from Tecan; and MTS2/4 orbital shaker was purchased from IKA Labortechnik.
Caco-2 cells were cultured in a culture flask. […] Cells at a confluency of 70-90% can be used to inoculate the Transwell. Prior to cell inoculation, 50 μL of cell culture medium was added to each well of the upper Transwell chamber and 25 mL of cell culture medium was added to the lower plate. The plate was incubated in an incubator (37° C., 5% CO2) for 1 h, and then inoculated with cells. After cell digestion, the cell suspension was pipetted and transferred to a round bottom centrifuge tube for centrifugation at 120 g for 5 min. […] The medium was changed as follows: transwell chambers were separated from the receiver plate, medium in the receiver plate was discarded, then medium in the Transwell chambers was discarded, and finally, 75 μL of fresh medium was added to each chamber, and 25 mL of fresh medium was added to the receiver plate.
After approximately 14 days of culture, the Caco-2 cells reached the confluency and completed differentiation. In this case, the cells can be applied to permeability assay. The monolayer resistance was measured with a resistance meter (Millipore, USA) and the resistance per well was recorded. After the measurement, the Transwell plate was put back to the incubator. Calculation of resistance: measured resistance value (ohms)×membrane area (cm^2)=TEER value (ohm·cm^2); if TEER value <230 ohms·cm^2, the well can not be used for permeability assay.
In 900 mL of purified water, 2.38 g HEPES and 0.35 g sodium bicarbonate were dissolved, then 100 mL of 10×HBSS was added and stirred well, pH was adjusted to 7.4, and finally, the resulting solution was filtered to obtain 1 L of transport buffer (HBSS, 10 mM HEPES, pH 7.4).
A DMSO stock solution of 1 mM of compound to be tested was diluted with the transport buffer to obtain 5 μM test solution. The control compound digoxin or minoxidil was diluted with DMSO to 2 mM, and diluted with the transport buffer described above to 10 μM to obtain a control compound test solution. In addition, DMSO was also diluted with the transport buffer described above to a receiving end solution containing 0.5% DMSO.
The Transwell plate was removed from the incubator. Monolayer cell membranes were rinsed twice with the transport buffer (10 mM HEPES, pH 7.4) and incubated at 37° C. for 30 min.
The transport rate of the compound from the apical side to the basolateral side was determined. […]
The transport rate of the compound from the basolateral side to the apical side was determined.

[8] = In vivo pharmacokinetics in SD rats; details: male, rat, plasma
Method: Using SD rats as test animals, drug concentrations in plasma of the rats at different times after intravenous injection and intragastric administration of the compounds provided in the present application were determined by LC/MS/MS. In vivo pharmacokinetic behaviors of the compounds provided in the present application in rats were investigated to evaluate pharmacokinetic characteristics of the compounds.
There were three healthy 6-8-week-old male SD rats in each group.
Intravenous administration: A certain amount of drug was weighed, and then 10 vol % N,N-dimethylacetamide, 33 vol % triethylene glycol, and 57 vol % physiological saline were added to prepare 1 mg/mL colorless clear and transparent liquid;
Intragastric administration: A certain amount of drug was weighed, and then 0.5 wt % hydroxypropyl methylcellulose, 0.1 vol % tween 80, and 99.6 vol % physiological saline were added to prepare 1 mg/mL white suspension.
After fasting overnight, the SD rats were dosed intravenously or intragastrically.
The compounds provided in the present application were administered intravenously to the rats, then 0.2 mL of blood was collected from jugular veins respectively at 0.083, 0.25, 0.5, 1, 2, 4, 8, and 24 h after the administration, and placed in a test tube containing EDTA-K2. The test tube was then centrifuged at 4000 rpm at 4° C. for 5 min to separate plasma, and the plasma was stored at −75° C. Alternatively, the compounds provided in the present application were administered intragastrically to the rats, then 0.2 mL of blood was collected from jugular veins respectively at 0.25, 0.5, 1, 2, 4, 8, and 24 h after the administration, and placed in a test tube containing EDTA-K2. The test tube was then centrifuged at 3500 rpm at 4° C. for 10 min to separate plasma, and the plasma was stored at −75° C.
The content of the compounds to be tested in rat plasma after intravenous administration or intragastric administration at different concentrations was determined: 30 μL of rat plasma at each time after administration was taken, 200 μL (50 ng/mL) of solution of internal standard dexamethasone in acetonitrile was added, then the resulting mixture was vortex-mixed for 30 s, and centrifuged at 4700 rpm at 4° C. for 15 min, the supernatant of plasma samples was diluted three times with water, and 2.0 μL of diluted solution was taken for LC-MS/MS.

PXR, sequence (O75469 whole entry): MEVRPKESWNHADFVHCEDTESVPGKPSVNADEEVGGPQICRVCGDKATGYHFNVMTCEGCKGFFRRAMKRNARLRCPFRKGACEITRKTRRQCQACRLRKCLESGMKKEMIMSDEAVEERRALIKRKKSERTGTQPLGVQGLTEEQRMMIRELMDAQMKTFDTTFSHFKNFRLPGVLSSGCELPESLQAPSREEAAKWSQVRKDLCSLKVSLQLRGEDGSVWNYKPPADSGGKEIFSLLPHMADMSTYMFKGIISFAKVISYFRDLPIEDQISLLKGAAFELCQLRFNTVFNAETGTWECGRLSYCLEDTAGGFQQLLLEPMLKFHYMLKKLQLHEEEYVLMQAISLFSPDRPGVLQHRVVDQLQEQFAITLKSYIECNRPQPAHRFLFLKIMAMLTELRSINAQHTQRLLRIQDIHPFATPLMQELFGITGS
USP1 (Recombinant Human His6-USP1/His6-UAF1 Complex Protein), sequence (O94782 whole entry): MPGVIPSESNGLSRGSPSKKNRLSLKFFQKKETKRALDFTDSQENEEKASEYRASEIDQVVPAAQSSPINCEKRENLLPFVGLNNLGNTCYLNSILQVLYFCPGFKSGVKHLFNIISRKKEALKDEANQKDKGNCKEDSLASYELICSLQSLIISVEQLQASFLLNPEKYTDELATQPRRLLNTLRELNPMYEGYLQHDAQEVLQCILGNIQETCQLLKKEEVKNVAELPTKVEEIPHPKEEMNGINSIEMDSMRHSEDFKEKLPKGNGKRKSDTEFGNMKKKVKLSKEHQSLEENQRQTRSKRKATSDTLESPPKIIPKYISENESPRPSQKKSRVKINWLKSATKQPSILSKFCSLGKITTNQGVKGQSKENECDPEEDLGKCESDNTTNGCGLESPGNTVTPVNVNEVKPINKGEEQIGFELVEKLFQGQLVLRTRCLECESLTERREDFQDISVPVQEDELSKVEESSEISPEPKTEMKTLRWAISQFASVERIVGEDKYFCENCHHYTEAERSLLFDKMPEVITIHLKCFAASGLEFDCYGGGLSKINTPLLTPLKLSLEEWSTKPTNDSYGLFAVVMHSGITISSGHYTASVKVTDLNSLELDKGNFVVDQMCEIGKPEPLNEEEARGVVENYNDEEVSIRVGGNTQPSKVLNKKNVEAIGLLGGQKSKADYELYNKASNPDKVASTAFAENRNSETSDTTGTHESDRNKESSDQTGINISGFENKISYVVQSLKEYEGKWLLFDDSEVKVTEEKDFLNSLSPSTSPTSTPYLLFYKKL
USP1 (Recombinant Human His6-USP1/His6-UAF1 Complex Protein), sequence (Q8TAF3 whole entry partner): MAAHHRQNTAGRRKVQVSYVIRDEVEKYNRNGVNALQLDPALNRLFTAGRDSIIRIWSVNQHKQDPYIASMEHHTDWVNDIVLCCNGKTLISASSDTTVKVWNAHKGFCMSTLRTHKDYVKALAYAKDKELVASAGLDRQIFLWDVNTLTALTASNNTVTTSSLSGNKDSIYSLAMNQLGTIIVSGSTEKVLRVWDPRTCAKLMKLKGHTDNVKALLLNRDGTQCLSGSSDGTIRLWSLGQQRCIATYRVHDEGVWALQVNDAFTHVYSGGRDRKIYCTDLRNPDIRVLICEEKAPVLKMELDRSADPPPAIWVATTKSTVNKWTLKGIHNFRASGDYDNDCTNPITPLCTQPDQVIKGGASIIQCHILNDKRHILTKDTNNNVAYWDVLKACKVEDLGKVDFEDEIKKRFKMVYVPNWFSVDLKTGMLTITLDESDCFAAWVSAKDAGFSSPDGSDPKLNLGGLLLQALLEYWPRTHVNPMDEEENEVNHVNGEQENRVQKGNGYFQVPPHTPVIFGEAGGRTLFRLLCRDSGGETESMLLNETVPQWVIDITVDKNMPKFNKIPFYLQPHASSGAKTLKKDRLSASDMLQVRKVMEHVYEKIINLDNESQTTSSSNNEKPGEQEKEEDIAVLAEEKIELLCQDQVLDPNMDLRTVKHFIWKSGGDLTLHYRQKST

| Structure (SMILES) | GI50 [1] | IC50 [2] | hepatocyte CLint at 1 μM [3] | hepatocyte CLint at 1 μM [4] | PXR activation (% Positive control) ([5]; 10 μM) | also measured |
| --- | --- | --- | --- | --- | --- | --- |
| COc1ncnc(C2CC2)c1-c1ncc2c(n1)N(Cc1ccc(-c3nc(C(F)(F)F)cn3C)cc1)C(=O)C(C)(C)O2 [Compound 22, 2-(4-cyclopropyl-6-methoxypyrimidin-5-yl)-6,6-dimethyl-8-(4-(1-methyl-4-(trifluoromethyl)-1H-imidazol-2-yl)benzyl)-6H-pyrimido[5,4-b][1,4]oxazin-7(8H)-one] | 19.9 nM | 14.3 nM | 4.85 µL/min/1e6 cells | 6.4 µL/min/1e6 cells |  |  |
| COc1ncnc(C2CC2)c1-c1ncc2c(n1)N(Cc1ccc(-n3nc(C(F)(F)F)cc3C)cc1)CC(=O)N2C [Compound 43, 2-(4-cyclopropyl-6-methoxypyrimidin-5-yl)-5-methyl-8-(4-(5-methyl-3-(trifluoromethyl)-1H-pyrazol-1-yl)benzyl)-7,8-dihydropteridin-6(5H)-one] | 32.6 nM | 22.6 nM |  |  | 3.2 % Positive control |  |
| COc1ncnc(C2CC2)c1-c1ncc2c(n1)N(Cc1ccc3c(c1)CCCn1cc(C(F)(F)F)nc1-3)CC(=O)N2C [Compound 45, 2-(4-cyclopropyl-6-methoxypyrimidin-5-yl)-5-methyl-8-((2-(trifluoromethyl)-6,7-dihydro-5H-benzo[c]imidazo[1,2-a]azepin-9-yl)methyl)-7,8-dihydropteridin-6(5H)-one] | 53.2 nM | 19.9 nM | 4.26 µL/min/1e6 cells |  |  | solubility at 2 h [6]: 88 µM (≈ 50.7 µg/mL) |
| COc1ncnc(C2CC2)c1-c1ncc2c(n1)N(Cc1ccc(-c3nc(C(F)(F)F)cn3C)cc1)C(=O)OC2(C)C [Compound 50, 7-(4-cyclopropyl-6-methoxypyrimidin-5-yl)-4,4-dimethyl-1-(4-(1-methyl-4-(trifluoromethyl)-1H-imidazol-2-yl)benzyl)-1,4-dihydro-2H-pyrimido[4,5-d][1,3]oxazin-2-one] |  |  | < 1 µL/min/1e6 cells | 4 µL/min/1e6 cells |  | Papp A→B at 2 h, 5 μM ([7]; apical to basolateral): 7.5 ×10⁻⁶ cm/s; Papp B→A at 2 h, 5 μM ([7]; basolateral to apical): 17.3 ×10⁻⁶ cm/s; PXR activation (% Positive control) ([5]; 30 μM): 32.8 % Positive control; Vd ([8]; IV 2 mg/kg, read-out: Apparent volume of distribution Vss_obs): 4.1 L/kg; clearance ([8]; IV 2 mg/kg, read-out: Clearance CL_obs): 11.4 mL/min/kg; half-life ([8]; IV 2 mg/kg, read-out: Half-life period T1/2 (converted)): 6 h; bioavailability ([8]; PO 5 mg/kg versus IV, read-out: Bioavailability F): 47.2%; Cmax ([8]; PO 5 mg/kg, read-out: Maximum plasma concentration Cmax): 235 ng/mL |
| COc1ncnc(C2CC2)c1-c1ncc2c(n1)N(Cc1ccc(-c3nc(C(F)(F)F)cn3C)cc1)C(=O)OC21CC1 [Compound 52, 7′-(4-cyclopropyl-6-methoxypyrimidin-5-yl)-1′-(4-(1-methyl-4-(trifluoromethyl)-1H-imidazol-2-yl)benzyl)spiro[cyclopropane-1,4′-pyrimido[4,5-d][1,3]oxazine]-2′(1′H)-one] | 59.6 nM | 23.2 nM |  |  | 20.9 % Positive control |  |
